Experiment [1] concerns gel-filtered platelets (thrombin-induced aggregation). The experiment is described as follows: In vitro inhibition of thrombin-induced gel-filtered platelet aggregation assay. The class given is cell-based. The conditions noted are these: platelet aggregation stimulated by thrombin, gel-filtered human platelets, read-out: GFP Aggr. IC50. The method, then: In Vitro Inhibition Of Thrombin-induced Gel-filtered Platelet Aggregation Assay
The percentage of platelet aggregation is calculated as an increase in light transmission of compound-treated platelet concentrate vs. control-treated platelet concentrate. Human blood is obtained from drug free, normal donors in tubes containing 0.13M sodium citrate. Platelet rich plasma (PRP) is collected by centrifugation of whole blood at 200×g for 10 min at 25° C. The PRP (5 mL) is gel filtered through Sepharose 2B (bed volume 50 mL), and the platelet count is adjusted to 2×10^7 platelets per sample. The following constituents are added to a siliconized cuvette: concentrated platelet filtrate and Tyrode's buffer (0.14M NaCl, 0.0027M KCl, 0.012M NaHCO3, 0.76 mM Na2HPO4, 0.0055M glucose, 2 mg/mL BSA and 5.0 mM HEPES @ pH 7.4) in an amount equal to 350 μL, 50 μL of 20 mM calcium and 50 μL of the test compound. Aggregation is monitored in a BIODATA aggregometer for the 3 min following the addition of agonist (thrombin 50 μL of 1 unit/mL).

Experiment [2] concerns the target T1, thrombin receptor (PAR-1) (Homo sapiens, UniProt P25116).
T1 construct: CHRF membranes (Jones, Biochim. Biophys. Acta 1992, 1136, 272) are thawed from −70° C; endogenous in cells; host or cells: CHRF cell membranes
T1 sequence (P25116 22-425): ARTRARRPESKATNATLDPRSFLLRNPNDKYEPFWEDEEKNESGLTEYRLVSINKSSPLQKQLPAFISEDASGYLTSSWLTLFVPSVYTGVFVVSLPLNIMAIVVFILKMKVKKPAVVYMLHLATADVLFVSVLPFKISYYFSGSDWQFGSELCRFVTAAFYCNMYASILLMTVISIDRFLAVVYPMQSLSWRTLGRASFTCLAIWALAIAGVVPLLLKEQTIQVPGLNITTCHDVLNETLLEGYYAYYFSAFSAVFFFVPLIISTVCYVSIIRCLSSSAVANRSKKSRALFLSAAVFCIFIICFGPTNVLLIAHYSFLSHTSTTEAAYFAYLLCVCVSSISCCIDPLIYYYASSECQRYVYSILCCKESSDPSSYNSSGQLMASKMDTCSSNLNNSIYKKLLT
The experiment can be described thus: In vitro thrombin receptor binding assay (CHRF membranes, tritiated 721-40). As to the method:
In Vitro Thrombin Receptor Binding Assay
CHRF membranes (Jones, Biochim. Biophys. Acta 1992, 1136, 272) are thawed from −70° C., centrifuged at maximum speed for 5 min, washed twice with binding buffer (50 mM HEPES containing 5 mM MgCl2 and 0.1% BSA), and re-suspended in binding buffer ([…]). 100 μL of membranes are added to the 24-Wallac plates and delivered to the Tomtech apparatus. In a typical experiment, 6 μL of samples (from a 125 μg/mL intermediary plate, 20% DMSO) and 44 μL buffer are delivered to the plates (final conc. of compounds is 3.7 μg/mL, 0.6% DMSO). Similarly, 6 μL 20% DMSO and 44 μL buffer are delivered to both column 1 (NSB) and column 12 (TB). 10 μL Ser-pFPhe-Har-Leu-Har-Lys-Tyr-NH2 (721-40; 500 μM in deionized water) is added to column 1. 50 μL tritiated 721-40 (specific activity 46 Ci/mmol) is added to all the wells. The plates are mixed well for 20 seconds, incubated for 30 min, and then harvested with 10 mM HEPES/138 mM NaCl using the Skatron harvester. The filters (GF/C Brandel FPXLR 296) are presoaked 3 h in 0.5% polyethylenimine in HEPES/0.1M N-acetylglucosamine) are set in saran wrap and dried for 3 min in the microwave, and placed in sample bags (Wallac 1450-432). 4.5 mL scintillation fluid (Wallac, Betaplate Scint 1205-440) is added. The bags are sealed, placed in filter cassettes (Wallac 1450-104), and analyzed on the microbeta counter.

[3] abbreviates: Table 2, read-out: Recptr Bdg. IC50.
The mark [4] stands for this setting: Table 1, read-out: Recptr Bdg. IC50.

Read-outs that look alike come from different tables or passages of the source.

Regarding `N=C(N)NCCC[C@H](NC(=O)CN(Cc1ccc(Cl)cc1)C(=O)Nc1ccc2c(CN3CCCC3)cn(Cc3c(Cl)cccc3Cl)c2c1)C(=O)NCc1ccccc1` [Compound 14], the IC50 in experiment [1] (Table 2) was 6300 nM; in experiment [2] (setting [3]), 6900 nM.
The matching figures for `N=C(N)NCCC[C@H](NC(=O)CN(Cc1ccc(F)cc1)C(=O)Nc1ccc2c(CN3CCCC3)cn(Cc3c(Cl)cccc3Cl)c2c1)C(=O)NCc1ccccc1` [Compound 15, N-4-Fluorophenylmethyl-N-{[1-(2,6-dichlorophenyl)methyl-3-(1-pyrrolidinylmethyl)-1H-indol-6-yl]aminocarbonyl}-clycinyl-L-arginin-N-benzyl-amide]: 2100 nM and 8100 nM.
For `NCCCN(Cc1cccs1)C(=O)[C@H](Cc1ccc(F)c(F)c1)NC(=O)Nc1ccc2c(CN3CCCC3)cn(Cc3c(Cl)cccc3Cl)c2c1` [Compound 6, Benzene Propanamide, N-(3-aminopropyl)-N-(2-thiophenemethyl)-α-[[[[[1-(2,6-dichlorophenyl)methyl]-3-(1-pyrrolidinylmethyl)-1H-indol-6-yl]amino]carbonyl]amino]-3,4-difluoro-, (αS)-], the figures for the IC50 in experiment [1] (Table 1) and in experiment [2] (setting [4]) were 600 nM and 10300 nM, respectively.
Regarding `NCCN(CC(=O)NCc1ccccc1)C(=O)[C@H](Cc1ccc(F)c(F)c1)NC(=O)Nc1ccc2c(CN3CCCC3)cn(Cc3c(Cl)cccc3Cl)c2c1` [Compound 2], the IC50 turned out to be 1700 nM in experiment [1] (Table 1) and 300 nM in experiment [2] (setting [4]).
In the case of `NCCN(CC(=O)NCc1ccccc1)C(=O)[C@H](Cc1ccc(F)c(F)c1)NC(=O)Nc1ccc2c(CN3CCCC3)nn(Cc3c(Cl)cccc3Cl)c2c1` [Compound 1], the half-inhibitory concentration (IC50) turned out to be 1300 nM in experiment [1] (Table 1) and 500 nM in experiment [2] (setting [4]).
For `NCCCCN(CC(=O)NCc1ccccc1)C(=O)[C@H](Cc1ccc(F)c(F)c1)NC(=O)Nc1ccc2c(CN3CCCC3)nn(Cc3c(Cl)cccc3Cl)c2c1` [Compound 3], the IC50 in experiment [1] (Table 1) was found to be 260 nM; in experiment [2] (setting [4]), 300 nM.
The matching figures for `O=C(CN(Cc1ccccc1)C(=O)[C@H](Cc1ccc(F)c(F)c1)NC(=O)Nc1ccc2c(CN3CCCC3)cn(Cc3c(Cl)cccc3Cl)c2c1)NCc1ccccc1` [Compound 5]: 22000 nM and 380 nM.
Take `NCCCCN(CC(=O)NCc1ccccc1)C(=O)[C@H](Cc1ccc(F)c(F)c1)NC(=O)Nc1ccc2c(CN3CCCC3)cn(Cc3c(Cl)cccc3Cl)c2c1` [Compound 4]: the IC50 in experiment [1] (Table 1) was determined as 260 nM; in experiment [2] (setting [4]), 220 nM.
In the case of `N=C(N)NCCC[C@H](NC(=O)CN(CCCCCN)C(=O)Nc1ccc2c(CN3CCCC3)cn(Cc3c(Cl)cccc3Cl)c2c1)C(=O)NCc1ccccc1` [Compound 13], the half-maximal inhibitory concentration (IC50) in experiment [1] (Table 2) is 1000 nM; in experiment [2] (setting [3]), more than 100000 nM.

Usually IC50 stands for the concentration needed to halve the response being measured.

The record behind these values is US6365617B1, “Indole and indazole urea-peptoids as thrombin receptor antagonists” (Ortho-McNeil Pharmaceutical, Inc., priority 1999, dated 2002).
